The results in this text go back to US7851474B2, “Dipiperazinyl ketones and related analogues” (Neurogen Corporation, priority 2005, dated 2010).

Read-outs that look alike come from different tables or passages of the source.

This assay addresses T1, chimeric human H3 receptor (Homo sapiens, UniProt Q9Y5N1, E19D).
T1 construct: made in house; host or cells: Sf9 insect cells (baculovirus infection); P2 membrane preparation
The experiment in a line: Chimeric human H3 receptor screening GTP binding assay (inhibition of histamine-stimulated GTP-gamma35S binding, Example 8). It is filed as biochemical. The conditions noted are these: 1 h, read-out: percent inhibition of agonist-induced GTP-gammaS binding to H3. In short, it runs like this:
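Sf9 membranes co-expressing the chimeric receptor and a heterotrimeric G-protein (35 μg protein) in Tris pH 7.4 buffer with 10 μM GDP; compound at 4 μM plus 1 μM histamine, 125 pM GTP-gamma35S, 60 min at room temperature. Filter-bound radioactivity read; non-specific binding defined with 10 uM GTP-gammaS; percent inhibition of histamine signal.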

[1] abbreviates: assay described in Example 8, symbol + in column headed Ki of Table II.
Where [2] appears, read: Table II, "+" in the column headed Ki, assay of Example 8.
The mark [3] stands for this setting: "+" in Ki of Table II, assay of Example 8.
The mark [4] stands for this setting: Table II "Ki", symbol "+": assay described in Example 8.

By inhibition is commonly meant the change of the read-out against control, counted positive when it falls.

T1 sequence (Q9Y5N1 with tags, fused parts or gaps E19D): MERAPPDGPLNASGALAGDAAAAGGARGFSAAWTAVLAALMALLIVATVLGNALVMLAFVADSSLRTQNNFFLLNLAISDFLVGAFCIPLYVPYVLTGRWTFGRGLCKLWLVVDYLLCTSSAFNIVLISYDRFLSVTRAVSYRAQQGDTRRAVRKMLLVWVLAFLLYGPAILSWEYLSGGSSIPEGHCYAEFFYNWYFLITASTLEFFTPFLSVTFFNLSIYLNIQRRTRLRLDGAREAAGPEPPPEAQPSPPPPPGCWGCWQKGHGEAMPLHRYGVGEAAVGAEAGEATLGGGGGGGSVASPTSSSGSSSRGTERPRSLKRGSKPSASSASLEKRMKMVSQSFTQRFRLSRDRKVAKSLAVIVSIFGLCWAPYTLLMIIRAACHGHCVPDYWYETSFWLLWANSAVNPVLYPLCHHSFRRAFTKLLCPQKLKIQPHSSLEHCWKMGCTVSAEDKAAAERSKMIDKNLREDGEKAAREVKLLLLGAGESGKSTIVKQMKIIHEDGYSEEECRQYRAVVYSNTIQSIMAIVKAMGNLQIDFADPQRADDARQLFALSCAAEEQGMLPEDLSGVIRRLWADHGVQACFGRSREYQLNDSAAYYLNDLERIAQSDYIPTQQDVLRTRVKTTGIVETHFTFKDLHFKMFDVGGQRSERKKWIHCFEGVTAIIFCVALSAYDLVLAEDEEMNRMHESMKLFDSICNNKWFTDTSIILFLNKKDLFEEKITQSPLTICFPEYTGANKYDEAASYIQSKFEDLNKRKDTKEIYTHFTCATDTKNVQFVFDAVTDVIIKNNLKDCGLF

On to `O=C(CN1CCN(C(=O)c2ccc3c(c2)OCO3)CC1)N1CCN(C2CCC2)CC1` [Compound 260, 1-(1,3-benzodioxol-5-ylcarbonyl)-4-[2-(4-cyclobutylpiperazin-1-yl)-2-oxoethyl]piperazine], for which the inhibition at 4 µM under setting [1] was above 90%.

`Cc1cccc(C(=O)N2CCN(CC(=O)N3CCN(C4CCC4)CC3)CC2)c1F` [Compound 703, 1-cyclobutyl-4-{[4-(2-fluoro-3-methylbenzoyl)piperazin-1-yl]acetyl}piperazine]: the inhibition at 4 µM under setting [2] is above 90%.

As to `O=C(Cc1ccc(F)cc1F)N1CCN(CC(=O)N2CCN(C3CCC3)CC2)CC1` [Compound 506, 1-cyclobutyl-4-({4-[(2,4-difluorophenyl)acetyl]piperazin-1-yl}acetyl)piperazine], the inhibition at 4 µM under setting [3] is above 90%.

With `O=C(CN1CCN(C(=O)c2cccc(Cl)c2)CC1)N1CCN(C2CCC2)CC1` [Compound 299, 1-(3-chlorobenzoyl)-4-[2-(4-cyclobutylpiperazin-1-yl)-2-oxoethyl]piperazine], under setting [1], the inhibition at 4 µM is above 90%.

Consider `CCn1nc(C)cc1C(=O)N1CCN(CC(=O)N2CCN(C3CCC3)CC2)CC1` [Compound 499, 1-cyclobutyl-4-({4-[(1-ethyl-3-methyl-1H-pyrazol-5-yl)carbonyl]piperazin-1-yl}acetyl)piperazine], for which the inhibition at 4 µM under setting [3] is above 90%.

Turning to `CCSc1ccc(C(=O)N2CCN(CC(=O)N3CCN(C4CCC4)CC3)CC2)cc1` [Compound 598, 1-cyclobutyl-4-({4-[4-(ethylthio)benzoyl]piperazin-1-yl}acetyl)piperazine], under setting [2], the inhibition at 4 µM was above 90%.

For the compound `O=C(Cc1ccc(F)cc1Cl)N1CCN(CC(=O)N2CCN(C3CCC3)CC2)CC1` [Compound 381, 1-[(2-chloro-4-fluorophenyl)acetyl]-4-[2-(4-cyclobutylpiperazin-1-yl)-2-oxoethyl]piperazine], the inhibition at 4 µM under setting [1] was above 90%.

With `O=C(CN1CCN(C(=O)c2cnccc2C(F)(F)F)CC1)N1CCN(C2CCC2)CC1` [Compound 632, 1-cyclobutyl-4-[(4-{[4-(trifluoromethyl)pyridin-3-yl]carbonyl}piperazin-1-yl)acetyl]piperazine], the inhibition at 4 µM under setting [2] is above 90%.

For `COc1ccccc1/C=C/C(=O)N1CCN(CC(=O)N2CCN(C3CCC3)CC2)CC1` [Compound 525, 1-cyclobutyl-4-({4-[(2E)-3-(2-methoxyphenyl)prop-2-enoyl]piperazin-1-yl}acetyl)piperazine], the inhibition at 4 µM under setting [3] is above 90%.

Regarding `Cc1ccc(N)c(C(=O)N2CCN(CC(=O)N3CCN(C4CCC4)CC3)CC2)c1` [Compound 893, 2-({4-[2-(4-cyclobutylpiperazin-1-yl)-2-oxoethyl]piperazin-1-yl}carbonyl)-4-methylaniline], the inhibition at 4 µM under setting [4] is above 90%.

Regarding `Cc1cccc(C)c1C(=O)N1CCN(CC(=O)N2CCN(C3CCC3)CC2)CC1` [Compound 696, 1-cyclobutyl-4-{[4-(2,6-dimethylbenzoyl)piperazin-1-yl]acetyl}piperazine], under setting [2], the inhibition at 4 µM was above 90%.

With `Cc1cc(C)cc(C(=O)N2CCN(CC(=O)N3CCN(C4CCC4)CC3)CC2)c1` [Compound 742, 1-cyclobutyl-4-{[4-(3,5-dimethylbenzoyl)piperazin-1-yl]acetyl}piperazine], the inhibition at 4 µM under setting [2] was above 90%.

With `COc1ccc(Cl)cc1C(=O)N1CCN(CC(=O)N2CCN(C3CCC3)CC2)CC1` [Compound 364, 1-(5-chloro-2-methoxybenzoyl)-4-[2-(4-cyclobutylpiperazin-1-yl)-2-oxoethyl]piperazine], the inhibition at 4 µM under setting [1] is above 90%.

As to `COc1ncccc1C(=O)N1CCN(CC(=O)N2CCN(C3CCC3)CC2)CC1` [Compound 537, 1-cyclobutyl-4-({4-[(2-methoxypyridin-3-yl)carbonyl]piperazin-1-yl}acetyl)piperazine], the inhibition at 4 µM under setting [3] was above 90%.

Take `Nc1ccccc1C(=O)N1CCN(CC(=O)N2CCN(C3CCC3)CC2)CC1` [Compound 890, 2-({4-[2-(4-cyclobutylpiperazin-1-yl)-2-oxoethyl]piperazin-1-yl}carbonyl)aniline]: the inhibition at 4 µM under setting [4] is above 90%.

As for `COc1cc(OC)cc(C(=O)N2CCN(CC(=O)N3CCN(C4CCC4)CC3)CC2)c1` [Compound 741, 1-cyclobutyl-4-{[4-(3,5-dimethoxybenzoyl)piperazin-1-yl]acetyl}piperazine], the inhibition at 4 µM under setting [2] is above 90%.

Take `O=C(CN1CCN(C(=O)c2c(Cl)cccc2Cl)CC1)N1CCN(C2CCC2)CC1` [Compound 691]: the inhibition at 4 µM under setting [2] was above 90%.

On to `Cc1nc(-c2ccc(C(F)(F)F)cc2)sc1C(=O)N1CCN(CC(=O)N2CCN(C3CCC3)CC2)CC1` [Compound 660, 1-cyclobutyl-4-{[4-({4-methyl-2-[4-(trifluoromethyl)phenyl]-1,3-thiazol-5-yl}carbonyl)piperazin-1-yl]acetyl}piperazine], for which, under setting [2], the inhibition at 4 µM is above 90%.

Take `O=C(COc1ccc(Cl)cc1Cl)N1CCN(CC(=O)N2CCN(C3CCC3)CC2)CC1` [Compound 504, 1-cyclobutyl-4-({4-[(2,4-dichlorophenoxy)acetyl]piperazin-1-yl}acetyl)piperazine]: under setting [3], the inhibition at 4 µM is above 90%.

On to `CCn1c(C(=O)N2CCN(CC(=O)N3CCN(C4CCC4)CC3)CC2)cc2ccccc21` [Compound 888, 2-({4-[2-(4-cyclobutylpiperazin-1-yl)-2-oxoethyl]piperazin-1-yl}carbonyl)-1-ethyl-1H-indole], for which the inhibition at 4 µM under setting [4] is above 90%.

`CCCCOc1ccccc1C(=O)N1CCN(CC(=O)N2CCN(C3CCC3)CC2)CC1` [Compound 272, 1-(2-butoxybenzoyl)-4-[2-(4-cyclobutylpiperazin-1-yl)-2-oxoethyl]piperazine]: the inhibition at 4 µM under setting [1] is above 90%.

For the compound `CCC(C)N1CCN(C(=O)CN2CCN(C(=O)C3CCCO3)CC2)CC1` (centres unmarked) [Compound 886, 1-sec-butyl-4-{[4-(tetrahydrofuran-2-ylcarbonyl)piperazin-1-yl]acetyl}piperazine], the inhibition at 4 µM under setting [4] was above 90%.

With `Cc1ccccc1OCC(=O)N1CCN(CC(=O)N2CCN(C3CCC3)CC2)CC1` [Compound 538, 1-cyclobutyl-4-({4-[(2-methylphenoxy)acetyl]piperazin-1-yl}acetyl)piperazine], the inhibition at 4 µM under setting [3] was above 90%.

As to `Cc1cccc(C(=O)N2CCN(CC(=O)N3CCN(C4CCC4)CC3)CC2)c1` [Compound 761, 1-cyclobutyl-4-{[4-(3-methylbenzoyl)piperazin-1-yl]acetyl}piperazine], under setting [2], the inhibition at 4 µM is above 90%.

Turning to `COc1cccc(OC)c1C(=O)N1CCN(CC(=O)N2CCN(C3CCC3)CC2)CC1` [Compound 694, 1-cyclobutyl-4-{[4-(2,6-dimethoxybenzoyl)piperazin-1-yl]acetyl}piperazine], the inhibition at 4 µM under setting [2] is above 90%.

On to `CSc1ccc(C(=O)N2CCN(CC(=O)N3CCN(C4CCC4)CC3)CC2)cc1` [Compound 600, 1-cyclobutyl-4-({4-[4-(methylthio)benzoyl]piperazin-1-yl}acetyl)piperazine], for which, under setting [2], the inhibition at 4 µM is above 90%.

Consider `O=C(CN1CCN(C(=O)c2ccc(-c3ccccc3)cc2)CC1)N1CCN(C2CCC2)CC1` [Compound 376, 1-(biphenyl-4-ylcarbonyl)-4-[2-(4-cyclobutylpiperazin-1-yl)-2-oxoethyl]piperazine], for which, under setting [1], the inhibition at 4 µM is above 90%.

As to `O=C(/C=C/c1ccc2c(c1)OCO2)N1CCN(CC(=O)N2CCN(C3CCC3)CC2)CC1` [Compound 385, 1-[(2E)-3-(1,3-benzodioxol-5-yl)prop-2-enoyl]-4-[2-(4-cyclobutylpiperazin-1-yl)-2-oxoethyl]piperazine], under setting [1], the inhibition at 4 µM was above 90%.

Take `Cc1ccc(C(=O)N2CCN(CC(=O)N3CCN(C4CCC4)CC3)CC2)cc1Cl` [Compound 298, 1-(3-chloro-4-methylbenzoyl)-4-[2-(4-cyclobutylpiperazin-1-yl)-2-oxoethyl]piperazine]: the inhibition at 4 µM under setting [1] is above 90%.

`O=C(CN1CCN(C(=O)c2ccccc2CCc2ccccc2)CC1)N1CCN(C2CCC2)CC1` [Compound 574, 1-cyclobutyl-4-({4-[2-(2-phenylethyl)benzoyl]piperazin-1-yl}acetyl)piperazine]: under setting [2], the inhibition at 4 µM was above 90%.

As for `Cc1ccccc1C(C(=O)N1CCN(CC(=O)N2CCN(C3CCC3)CC2)CC1)C(C)C` (centres unmarked) [Compound 591, 1-cyclobutyl-4-({4-[3-methyl-2-(2-methylphenyl)butanoyl]piperazin-1-yl}acetyl)piperazine], under setting [2], the inhibition at 4 µM was above 90%.

For the compound `Cc1ccc(C)c(OCC(=O)N2CCN(CC(=O)N3CCN(C4CCC4)CC3)CC2)c1` [Compound 510, 1-cyclobutyl-4-({4-[(2,5-dimethylphenoxy)acetyl]piperazin-1-yl}acetyl)piperazine], the inhibition at 4 µM under setting [3] was above 90%.

For the compound `CCn1nc(C)c(Br)c1C(=O)N1CCN(CC(=O)N2CCN(C3CCC3)CC2)CC1` [Compound 402, 1-[(4-bromo-1-ethyl-3-methyl-1H-pyrazol-5-yl)carbonyl]-4-[2-(4-cyclobutylpiperazin-1-yl)-2-oxoethyl]piperazine], under setting [1], the inhibition at 4 µM was above 90%.

Regarding `O=C(CN1CCN(C(=O)c2cc(-c3ccc(Cl)cc3)oc2C(F)(F)F)CC1)N1CCN(C2CCC2)CC1` [Compound 469, 1-[5-(4-chlorophenyl)-2-(trifluoromethyl)-3-furoyl]-4-[2-(4-cyclobutylpiperazin-1-yl)-2-oxoethyl]piperazine], the inhibition at 4 µM under setting [3] was above 90%.

For the compound `COc1ccc(Br)cc1/C=C/C(=O)N1CCN(CC(=O)N2CCN(C3CCC3)CC2)CC1` [Compound 393, 1-[(2E)-3-(5-bromo-2-methoxyphenyl)prop-2-enoyl]-4-[2-(4-cyclobutylpiperazin-1-yl)-2-oxoethyl]piperazine], under setting [1], the inhibition at 4 µM was above 90%.
